Assay results as given in ChEMBL document CHEMBL6078687 (J Med Chem, 2024).

system: Influenza A virus; test: Antiviral activity against oseltamivir-resistant Influenza A virus A/H1N1/pdm09 infected in MDCK cells assessed as inhibition of plaque formation measured after 2 days; conditions: 48 h

Question: `CCC(CC)O[C@@H]1C=C(C(=O)O)C[C@H](NCc2ccc(OCc3cccc(B(O)O)c3)cc2Cl)[C@H]1NC(C)=O` was tested. Which EC50 did it give?
Answer: 30 nM

Question: With `CCC(CC)O[C@@H]1C=C(C(=O)O)C[C@H](NCc2ccc(OCc3cccc(B(O)O)c3)cc2C)[C@H]1NC(C)=O` as the compound, how does the EC50 read?
Answer: 30 nM

Question: `CCC(CC)O[C@@H]1C=C(C(=O)O)C[C@H](N)[C@H]1NC(C)=O` [OSELTAMIVIR CARBOXYLATE] was tested. Which EC50 did it give?
Answer: > 20000 nM

Question: How did the EC50 turn out when `CCC(CC)O[C@@H]1C=C(C(=O)O)C[C@H](NCc2ccc(OCc3cccc(B(O)O)c3)cc2F)[C@H]1NC(C)=O` was run?
Answer: 170 nM

Question: `CCC(CC)O[C@@H]1C=C(C(=O)O)C[C@H](NCc2c(C)cc(OCc3cccc(B(O)O)c3)cc2C)[C@H]1NC(C)=O` was tested. Which EC50 did it give?
Answer: 150 nM

Question: `CCC(CC)O[C@@H]1C=C(C(=O)O)C[C@H](NCc2ccc(OCc3ccc(B(O)O)cc3)cc2Cl)[C@H]1NC(C)=O` was tested. Which EC50 did it give?
Answer: 400 nM

Question: `CCC(CC)O[C@@H]1C=C(C(=O)O)C[C@H](NCc2ccc(OCc3ccc(B(O)O)cc3)cc2C)[C@H]1NC(C)=O` was tested. Which EC50 did it give?
Answer: 40 nM

Question: Which EC50 does the source give for `CCC(CC)O[C@@H]1C=C(C(=O)O)C[C@H](NCc2ccc(OCc3ccc(B(O)O)cc3)cc2F)[C@H]1NC(C)=O` here?
Answer: 580 nM
